From BindingDB's records for doi:10.1124/mol.64.4.865 (The Danish University of Pharmaceutical Sciences, 2003)
pKi: −log10 of the molar value. “And” between values parts separate entries of the source, which are not always exact repeats. Identical values can stand only once.

Columns and labels:
[1] = target: Nicotinic acetylcholine receptor (Rattus leucopus, UniProt Q62594)
[2] = target: T1, Muscarinic acetylcholine receptor M2 (Rattus norvegicus, UniProt P10980)
T1 sequence (P10980 whole entry): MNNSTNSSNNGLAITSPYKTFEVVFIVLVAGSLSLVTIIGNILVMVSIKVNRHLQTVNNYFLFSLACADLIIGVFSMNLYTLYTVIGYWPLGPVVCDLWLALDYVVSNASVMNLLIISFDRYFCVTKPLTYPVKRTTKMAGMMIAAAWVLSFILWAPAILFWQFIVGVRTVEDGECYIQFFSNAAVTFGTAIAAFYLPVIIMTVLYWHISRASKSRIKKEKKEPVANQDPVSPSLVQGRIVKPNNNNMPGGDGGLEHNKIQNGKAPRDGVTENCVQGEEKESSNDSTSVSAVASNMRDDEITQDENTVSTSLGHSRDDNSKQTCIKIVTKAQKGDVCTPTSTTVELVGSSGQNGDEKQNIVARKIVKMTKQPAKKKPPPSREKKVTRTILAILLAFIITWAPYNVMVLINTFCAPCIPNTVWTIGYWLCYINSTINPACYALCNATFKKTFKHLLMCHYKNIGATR

[3] = target: Neuronal acetylcholine receptor subunit alpha-3 (Rattus norvegicus, UniProt P04757)
Chain of Neuronal acetylcholine receptor subunit alpha-3 (P04757 whole entry): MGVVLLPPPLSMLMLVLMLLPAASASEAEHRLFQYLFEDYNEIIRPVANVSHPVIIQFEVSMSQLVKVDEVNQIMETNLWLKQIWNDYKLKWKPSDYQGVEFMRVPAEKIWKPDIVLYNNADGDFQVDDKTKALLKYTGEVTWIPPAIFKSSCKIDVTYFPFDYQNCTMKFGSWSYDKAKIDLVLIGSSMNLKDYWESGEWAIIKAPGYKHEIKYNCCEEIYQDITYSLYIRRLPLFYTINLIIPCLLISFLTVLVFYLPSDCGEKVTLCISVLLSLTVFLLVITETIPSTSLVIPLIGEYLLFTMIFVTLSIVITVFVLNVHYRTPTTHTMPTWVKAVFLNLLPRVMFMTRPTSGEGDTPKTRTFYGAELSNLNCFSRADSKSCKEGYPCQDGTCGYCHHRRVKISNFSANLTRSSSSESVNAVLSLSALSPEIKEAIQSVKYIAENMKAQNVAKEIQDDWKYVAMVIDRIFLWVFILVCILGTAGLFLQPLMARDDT

[4] = target: Neuronal acetylcholine receptor subunit alpha-4 (Rattus norvegicus, UniProt P09483)
Chain of Neuronal acetylcholine receptor subunit alpha-4 (P09483 whole entry): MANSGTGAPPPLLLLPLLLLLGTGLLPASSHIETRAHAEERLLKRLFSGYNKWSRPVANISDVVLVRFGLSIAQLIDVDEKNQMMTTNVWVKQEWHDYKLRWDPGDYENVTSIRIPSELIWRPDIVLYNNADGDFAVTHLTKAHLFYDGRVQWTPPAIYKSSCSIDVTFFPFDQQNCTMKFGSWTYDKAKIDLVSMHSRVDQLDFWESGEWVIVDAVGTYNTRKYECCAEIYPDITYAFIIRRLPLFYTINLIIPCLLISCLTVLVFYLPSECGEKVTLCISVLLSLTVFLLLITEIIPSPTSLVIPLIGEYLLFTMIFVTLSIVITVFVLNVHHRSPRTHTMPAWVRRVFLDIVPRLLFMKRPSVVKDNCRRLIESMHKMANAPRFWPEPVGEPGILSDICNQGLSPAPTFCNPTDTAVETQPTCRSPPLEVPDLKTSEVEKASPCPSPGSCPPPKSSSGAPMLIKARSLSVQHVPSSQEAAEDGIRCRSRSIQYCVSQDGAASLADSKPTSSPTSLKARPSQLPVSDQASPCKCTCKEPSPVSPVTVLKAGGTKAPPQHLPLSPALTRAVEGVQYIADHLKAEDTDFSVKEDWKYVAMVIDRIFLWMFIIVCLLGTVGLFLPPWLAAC

[5] = target: Neuronal acetylcholine receptor subunit alpha-7 (Rattus norvegicus, UniProt Q05941)
Chain of Neuronal acetylcholine receptor subunit alpha-7 (Q05941 whole entry): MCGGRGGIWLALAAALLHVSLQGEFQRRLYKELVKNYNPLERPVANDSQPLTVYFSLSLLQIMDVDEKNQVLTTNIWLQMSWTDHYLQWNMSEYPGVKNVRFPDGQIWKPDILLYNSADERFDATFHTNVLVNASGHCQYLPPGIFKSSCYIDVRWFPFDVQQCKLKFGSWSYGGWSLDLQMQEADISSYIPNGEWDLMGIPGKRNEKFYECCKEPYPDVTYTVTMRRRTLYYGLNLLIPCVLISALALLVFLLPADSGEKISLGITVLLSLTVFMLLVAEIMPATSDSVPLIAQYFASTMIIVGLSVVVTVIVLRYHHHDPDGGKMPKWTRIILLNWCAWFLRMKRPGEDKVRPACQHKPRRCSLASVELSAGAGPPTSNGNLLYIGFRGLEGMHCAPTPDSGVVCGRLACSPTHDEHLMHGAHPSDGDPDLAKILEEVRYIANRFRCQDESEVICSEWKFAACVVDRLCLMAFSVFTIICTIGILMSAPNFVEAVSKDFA

Chain of Nicotinic acetylcholine receptor (Q62594 whole entry): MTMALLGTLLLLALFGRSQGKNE

Row | SMILES | pKi [1] | pKi [2] | pKi [3] | pKi [4] | pKi [5]
1 | CN(C)CCOC(=O)N(C)C [DMCAE] | 5.24 | < 5.00 |  |  | 
2 | CN(C)C(=O)OCC[N+](C)(C)C [CAS_84607] | 7.70 | 5.92 |  |  | 
3 | C[C@H](CCOC(=O)N(C)C)N(C)C [3-N,N-dimethylaminobutyl-N,N-dimethylcarbamate] | 8.05 | 5.44 | 6.43 | 7.77 and 7.18 | < 5.00
4 | COC(=O)Nc1ccc(Cl)c(Cl)c1 [SWEP] | 7.64 | 6.82 | 5.57 |  | < 5.00
5 | O=c1cccc2n1CC1CNCC2C1 (stereo unspecified) [CAS_485-35-8] |  |  | 6.89 | 8.89 and 8.17 | < 5.00
